Positions of bridges follow the written chain, without caps; N, C: chain ends. Non-standard residues stand in square brackets, D forms with d. Residues, ends and D or L forms follow the SMILES beside them. *: point of attachment. Trp(1-CH2COOH) = N[C@@H](Cc1cn(CC(=O)O)c2ccccc12)C(=O)O; Phe(3-COOH) = N[C@@H](Cc1cccc(C(=O)O)c1)C(=O)O; NH(CH2CH2O)8Me = COCCOCCOCCOCCOCCOCCOCCOCCN*; NMePhe(3-Cl) = CN[C@@H](Cc1cccc(Cl)c1)C(=O)O; 3Pal(6-NH2) = Nc1ccc(C[C@H](N)C(=O)O)cn1; NMeY = CN[C@@H](Cc1ccc(O)cc1)C(=O)O; 3Pal = N[C@@H](Cc1cccnc1)C(=O)O; PEG4 = NCCOCCOCCOCCOCCC(=O)O; Carboxymethyl = O=C(O)C*
Molecular target: T1, human transferrin receptor (hTfR) (Homo sapiens, UniProt P02786)
T1 construct: made in house
Assay: Evaluation of molecular interaction between transferrin receptor (hTfR) and peptide using surface plasmon resonance (SPR)
Assay type: binding
Settings: KD class for binding to hTfR by SPR; peptide with the linker shown in the same line; 'low signal indicates no activity'; read-out: SPR
Description: Evaluation Test of Molecular Interaction Between Transferrin Receptor (hTfR) and Peptide Using Surface Plasmon Resonance (SPR)
The intermolecular interactions of various synthesized peptides with the transferrin receptor (hTfR) by surface plasmon resonance (SPR) of the peptides were tested by the methods described below. Specific test methods are shown below.
NTA sensor chip (Global Life Sciences Technologies Japan K.K.) was inserted into BiacoreT200 (Global Life Sciences Technologies Japan K.K.), then the priming operation was performed three times by using running buffer containing: 10 mM HEPES pH 8.0 (Nacalai Tesque, Inc.), 150 mM NaCl (Nacalai Tesque, Inc.), 0.05% Tween 20 (Nacalai Tesque, Inc.), 0.1% BSA (SIGMA-ALDRICH) and 1.0% DMSO (FUJIFILM Wako Pure Chemical Corporation), and equilibrated at a flow rate of 30 μL/min. 350 mM EDTA solution was reacted at a flow rate of 10 μL/min for 60 seconds, 0.5 mM […] solution (Kishida Chemical Co., Ltd.) was reacted at a flow rate of 10 μL/min for 60 seconds, and then the NTA sensor chip was washed with 3 mM EDTA solution (Nacalai Tesque, Inc.) at a flow rate of 10 μL/min for 60 seconds. After mixing 50 μL each of 60 mM EDC solution (Global Life Science Technologies Japan K.K.) and 650 mM NHS solution (Global Life Science Technologies Japan K.K.), the reaction was carried out at a flow rate of 10 μL/min for 420 seconds. 150 μL of 0.5 μM hTfR dimer solution was prepared by dilution with running buffer and reacted at a flow rate of 10 μL/min for 300 seconds to immobilize hTfR on the NTA sensor chip. For the human transferrin receptor (hTfR), recombinant hTfR described in Example 2 of WO2018/124121 was used. After immobilization, capping was performed by reacting with 1.0 M ethanolamine solution (Global Life Sciences Technologies Japan K.K.) at a flow rate of 10 μL/min for 420 seconds. Peptide lysate prepared in DMSO solution to 10 mM was diluted with running buffer to be a final concentration of 10 μM peptide lysate, then peptide solutions of 100 nM, 50 nM, 25 nM, 10 nM, and 5 nM were prepared. Using the above samples, the kinetics of the peptide against hTfR was obtained by SPR measurement.
The kinetic evaluation model was single-cycle kinetics, and curve fitting was performed using Biacore T200 Evaluation Software Version 3.0 (Global Life Science Technologies Japan K.K.). The binding of the peptide to hTfR was evaluated by performing curve fitting on the obtained sensorgram by least squares method and obtaining the KD value.

T1 sequence (P02786 89-760 limits assumed): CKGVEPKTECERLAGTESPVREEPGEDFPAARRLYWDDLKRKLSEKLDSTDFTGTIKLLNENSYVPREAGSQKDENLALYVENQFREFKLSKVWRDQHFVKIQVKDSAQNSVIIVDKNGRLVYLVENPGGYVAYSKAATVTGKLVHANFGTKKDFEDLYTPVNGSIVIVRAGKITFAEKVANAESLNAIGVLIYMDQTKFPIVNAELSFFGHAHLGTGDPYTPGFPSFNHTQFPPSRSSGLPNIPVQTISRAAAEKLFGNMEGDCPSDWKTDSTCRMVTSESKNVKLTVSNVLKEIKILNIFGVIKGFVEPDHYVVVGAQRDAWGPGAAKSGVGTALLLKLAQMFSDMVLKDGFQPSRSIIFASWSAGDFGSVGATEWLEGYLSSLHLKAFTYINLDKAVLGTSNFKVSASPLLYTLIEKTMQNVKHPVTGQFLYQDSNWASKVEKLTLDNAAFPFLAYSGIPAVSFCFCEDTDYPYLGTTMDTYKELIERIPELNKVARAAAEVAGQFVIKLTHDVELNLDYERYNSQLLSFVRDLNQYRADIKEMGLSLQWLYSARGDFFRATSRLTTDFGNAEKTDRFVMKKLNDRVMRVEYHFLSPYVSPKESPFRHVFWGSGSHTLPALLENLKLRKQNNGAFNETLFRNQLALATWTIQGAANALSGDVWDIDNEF

Kd [nM] | Structure (SMILES)
1 to 100 | CC[C@H](C)[C@@H]1NC(=O)[C@H](Cc2ccc(OC)cc2)NC(=O)[C@H](Cc2ccc(O)cc2)NC(=O)[C@H](CC(N)=O)NC(=O)[C@H](Cc2c[nH]c3ccccc23)NC(=O)[C@H](C(C)C)NC(=O)[C@H](Cc2cccc(Cl)c2)N(C)C(=O)[C@H](C(C)C)NC(=O)[C@H](C)NC(=O)CSC[C@@H](C(=O)NCCOCCOCCOCCOCCC(N)=O)NC(=O)[C@H](Cc2ccc(O)cc2)N(C)C(=O)[C@H](Cc2ccccc2)NC(=O)[C@H](CCC(N)=O)NC(=O)[C@H](CCC(N)=O)NC(=O)[C@H]([C@@H](C)CC)NC1=O [894_0331] ({CH2CO}-AV[NMePhe(3-Cl)]VWNYY(Me)IIQQF[NMeY]C[PEG4]-NH2; thioether N-15)
1 to 100 | CC[C@H](C)[C@@H]1NC(=O)[C@H](Cc2ccc(OC)cc2)NC(=O)[C@H](Cc2ccc(N)nc2)NC(=O)[C@H](CC(N)=O)NC(=O)[C@H](Cc2cn(CC(=O)O)c3ccccc23)NC(=O)[C@H](C(C)C)NC(=O)[C@H](Cc2cccc(Cl)c2)N(C)C(=O)[C@H](C(C)C)NC(=O)[C@H](C)NC(=O)CSC[C@@H](C(=O)NCCOCCOCCOCCOCCC(N)=O)NC(=O)[C@H](Cc2ccc(O)cc2)N(C)C(=O)[C@H](Cc2ccccc2)NC(=O)[C@H](CCCNC(=N)N)NC(=O)[C@H](CCCNC(=N)N)NC(=O)[C@H]([C@@H](C)CC)NC1=O [894_0332] ({CH2CO}-AV[NMePhe(3-Cl)]V[Trp(1-CH2COOH)]N[3Pal(6-NH2)]Y(Me)IIRRF[NMeY]C[PEG4]-NH2; thioether N-15)
1 to 100 | CC[C@H](C)[C@@H]1NC(=O)[C@H](Cc2cccnc2)NC(=O)[C@H](Cc2ccc(O)cc2)NC(=O)[C@H](CC(N)=O)NC(=O)[C@H](Cc2cn(CC(=O)O)c3ccccc23)NC(=O)[C@H](C(C)C)NC(=O)[C@H](Cc2cccc(Cl)c2)N(C)C(=O)[C@H](C(C)C)NC(=O)[C@H](C)NC(=O)CSC[C@@H](C(=O)NCCOCCOCCOCCOCCC(N)=O)NC(=O)[C@H](Cc2ccc(O)cc2)N(C)C(=O)[C@H](Cc2ccccc2)NC(=O)[C@H](CCCNC(=N)N)NC(=O)[C@H](CCCNC(=N)N)NC(=O)[C@H]([C@@H](C)CC)NC1=O [894_0333] ({CH2CO}-AV[NMePhe(3-Cl)]V[Trp(1-CH2COOH)]NY[3Pal]IIRRF[NMeY]C[PEG4]-NH2; thioether N-15)
1 to 100 | CC[C@H](C)[C@@H]1NC(=O)[C@H](Cc2ccc(OC)cc2)NC(=O)[C@H](Cc2ccc(O)cc2)NC(=O)[C@H](CC(N)=O)NC(=O)[C@H](Cc2cn(CC(=O)O)c3ccccc23)NC(=O)[C@H](C(C)C)NC(=O)[C@H](Cc2cccc(Cl)c2)N(C)C(=O)[C@H](C(C)C)NC(=O)[C@H](C)NC(=O)CSC[C@@H](C(=O)NCCOCCOCCOCCOCCC(N)=O)NC(=O)[C@H](Cc2ccc(O)cc2)N(C)C(=O)[C@H](Cc2ccncc2)NC(=O)[C@H](CCCNC(=N)N)NC(=O)[C@H](CCCNC(=N)N)NC(=O)[C@H]([C@@H](C)CC)NC1=O [894_0335]
1 to 100 | CC[C@H](C)[C@@H]1NC(=O)[C@H](Cc2ccc(OC)cc2)NC(=O)[C@H](Cc2ccc(O)cc2)NC(=O)[C@H](CC(N)=O)NC(=O)[C@H](Cc2cn(CC(=O)O)c3ccccc23)NC(=O)[C@H](C(C)C)NC(=O)[C@H](Cc2cccc(Cl)c2)N(C)C(=O)[C@H](C(C)C)NC(=O)[C@H](C)NC(=O)CSC[C@@H](C(=O)NCCOCCOCCOCCOCCC(N)=O)NC(=O)[C@H](Cc2ccc(O)cc2)N(C)C(=O)[C@H](Cc2cccc(C(=O)O)c2)NC(=O)[C@H](CCCNC(=N)N)NC(=O)[C@H](CCCNC(=N)N)NC(=O)[C@H]([C@@H](C)CC)NC1=O [894_0336]
1 to 100 | CC[C@H](C)[C@@H]1NC(=O)[C@H](Cc2cccnc2)NC(=O)[C@H](Cc2ccc(N)nc2)NC(=O)[C@H](CC(N)=O)NC(=O)[C@H](Cc2cn(CC(=O)O)c3ccccc23)NC(=O)[C@H](C(C)C)NC(=O)[C@H](Cc2cccc(Cl)c2)N(C)C(=O)[C@H](C(C)C)NC(=O)[C@H](C)NC(=O)CSC[C@@H](C(=O)NCCOCCOCCOCCOCCC(N)=O)NC(=O)[C@H](Cc2ccc(O)cc2)N(C)C(=O)[C@H](Cc2ccccc2)NC(=O)[C@H](CCCNC(=N)N)NC(=O)[C@H](CCCNC(=N)N)NC(=O)[C@H]([C@@H](C)CC)NC1=O [894_0338] ({CH2CO}-AV[NMePhe(3-Cl)]V[Trp(1-CH2COOH)]N[3Pal(6-NH2)][3Pal]IIRRF[NMeY]C[PEG4]-NH2; thioether N-15)
1 to 100 | CC[C@H](C)[C@@H]1NC(=O)[C@H](Cc2cccnc2)NC(=O)[C@H](Cc2ccc(N)nc2)NC(=O)[C@H](CC(N)=O)NC(=O)[C@H](Cc2c[nH]c3ccccc23)NC(=O)[C@H](C(C)C)NC(=O)[C@H](Cc2cccc(Cl)c2)N(C)C(=O)[C@H](C(C)C)NC(=O)[C@H](C)NC(=O)CSC[C@@H](C(=O)NCCOCCOCCOCCOCCC(N)=O)NC(=O)[C@H](Cc2ccc(O)cc2)N(C)C(=O)[C@H](Cc2ccccc2)NC(=O)[C@H](CCCNC(=N)N)NC(=O)[C@H](CCCNC(=N)N)NC(=O)[C@H]([C@@H](C)CC)NC1=O [894_0357] ({CH2CO}-AV[NMePhe(3-Cl)]VWN[3Pal(6-NH2)][3Pal]IIRRF[NMeY]C[PEG4]-NH2; thioether N-15)
1 to 100 | CC[C@H](C)[C@@H]1NC(=O)[C@H](Cc2ccc(OCC(=O)O)cc2)NC(=O)[C@H](Cc2ccc(N)nc2)NC(=O)[C@H](CC(N)=O)NC(=O)[C@H](Cc2c[nH]c3ccccc23)NC(=O)[C@H](C(C)C)NC(=O)[C@H](Cc2cccc(Cl)c2)N(C)C(=O)[C@H](C(C)C)NC(=O)[C@H](C)NC(=O)CSC[C@@H](C(=O)NCCOCCOCCOCCOCCC(N)=O)NC(=O)[C@H](Cc2ccc(O)cc2)N(C)C(=O)[C@H](Cc2ccccc2)NC(=O)[C@H](CCCNC(=N)N)NC(=O)[C@H](CCCNC(=N)N)NC(=O)[C@H]([C@@H](C)CC)NC1=O [894_0358] ({CH2CO}-AV[NMePhe(3-Cl)]VWN[3Pal(6-NH2)]Y(Carboxymethyl)IIRRF[NMeY]C[PEG4]-NH2; thioether N-15)
1 to 100 | CC[C@H](C)[C@@H]1NC(=O)[C@H](Cc2ccc(OC)cc2)NC(=O)[C@H](Cc2ccc(N)nc2)NC(=O)[C@H](CC(N)=O)NC(=O)[C@H](Cc2c[nH]c3ccccc23)NC(=O)[C@H](C(C)C)NC(=O)[C@H](Cc2cccc(Cl)c2)N(C)C(=O)[C@H](C(C)C)NC(=O)[C@H](C)NC(=O)CSC[C@@H](C(=O)NCCOCCOCCOCCOCCC(N)=O)NC(=O)[C@H](Cc2ccc(O)cc2)N(C)C(=O)[C@H](Cc2cccc(C(=O)O)c2)NC(=O)[C@H](CCCNC(=N)N)NC(=O)[C@H](CCCNC(=N)N)NC(=O)[C@H]([C@@H](C)CC)NC1=O [894_0359] ({CH2CO}-AV[NMePhe(3-Cl)]VWN[3Pal(6-NH2)]Y(Me)IIRR[Phe(3-COOH)][NMeY]C[PEG4]-NH2; thioether N-15)
1 to 100 | CC[C@H](C)[C@@H]1NC(=O)[C@H](Cc2cccnc2)NC(=O)[C@H](Cc2ccc(O)cc2)NC(=O)[C@H](CC(N)=O)NC(=O)[C@H](Cc2c[nH]c3ccccc23)NC(=O)[C@H](C(C)C)NC(=O)[C@H](Cc2cccc(Cl)c2)N(C)C(=O)[C@H](C(C)C)NC(=O)[C@H](C)NC(=O)CSC[C@@H](C(=O)NCCOCCOCCOCCOCCC(N)=O)NC(=O)[C@H](Cc2ccc(O)cc2)N(C)C(=O)[C@H](Cc2ccccc2)NC(=O)[C@H](CCC(=O)NCCOCCOCCOCCOCCOCCOCCOCCOC)NC(=O)[C@H](CCCNC(=N)N)NC(=O)[C@H]([C@@H](C)CC)NC1=O [894_0360] ({CH2CO}-AV[NMePhe(3-Cl)]VWNY[3Pal]IIRE(NH(CH2CH2O)8Me)F[NMeY]C[PEG4]-NH2; thioether N-15)
1 to 100 | CC[C@H](C)[C@@H]1NC(=O)[C@H](Cc2cccnc2)NC(=O)[C@H](Cc2ccc(O)cc2)NC(=O)[C@H](CC(N)=O)NC(=O)[C@H](Cc2c[nH]c3ccccc23)NC(=O)[C@H](C(C)C)NC(=O)[C@H](Cc2cccc(Cl)c2)N(C)C(=O)[C@H](C(C)C)NC(=O)[C@H](C)NC(=O)CSC[C@@H](C(=O)NCCOCCOCCOCCOCCC(N)=O)NC(=O)[C@H](Cc2ccc(O)cc2)N(C)C(=O)[C@H](Cc2cccc(C(=O)O)c2)NC(=O)[C@H](CCCNC(=N)N)NC(=O)[C@H](CCCNC(=N)N)NC(=O)[C@H]([C@@H](C)CC)NC1=O [894_0361] ({CH2CO}-AV[NMePhe(3-Cl)]VWNY[3Pal]IIRR[Phe(3-COOH)][NMeY]C[PEG4]-NH2; thioether N-15)
1 to 100 | CC[C@H](C)[C@@H]1NC(=O)[C@H](Cc2ccc(OCC(=O)O)cc2)NC(=O)[C@H](Cc2ccc(O)cc2)NC(=O)[C@H](CC(N)=O)NC(=O)[C@H](Cc2c[nH]c3ccccc23)NC(=O)[C@H](C(C)C)NC(=O)[C@H](Cc2cccc(Cl)c2)N(C)C(=O)[C@H](C(C)C)NC(=O)[C@H](C)NC(=O)CSC[C@@H](C(=O)NCCOCCOCCOCCOCCC(N)=O)NC(=O)[C@H](Cc2ccc(O)cc2)N(C)C(=O)[C@H](Cc2cccc(C(=O)O)c2)NC(=O)[C@H](CCCNC(=N)N)NC(=O)[C@H](CCCNC(=N)N)NC(=O)[C@H]([C@@H](C)CC)NC1=O [894_0363]

— patent publication US20260116920A1, “HUMAN TRANSFERRIN RECEPTOR BINDING PEPTIDE” (PEPTIDREAM INC., priority 2021, published 2026)
